Reference: PMC10745491 (Frontiers in Cellular Neuroscience, 2023)
Like-named read-outs stand apart in the source and are kept apart here. Peptide text beside a SMILES is read from it.

Columns and labels:
rat V1aR = rat V1aR (Rattus norvegicus, UniProt P30560); test: cell-based; type: cell-based
A1 = A1 (Homo sapiens, UniProt P30542); test: radioligand binding assay
alpha 1A = alpha 1A (Homo sapiens, UniProt P35348); type: binding
AT1 = AT1 (Homo sapiens, UniProt P30556); type: binding
BZD = test: radioligand binding assay; set-up: species or system human
D2S = D2S (Homo sapiens, UniProt P14416); type: binding
M4 = M4 (Homo sapiens, UniProt P08173); type: binding
N muscle-type = N muscle-type (Homo sapiens, UniProt P02708+P07510+Q07001); type: binding
PCP = test: radioligand binding assay; set-up: species or system human
FP = FP (Homo sapiens, UniProt P43088); type: binding
Sequence of FP (P43088 whole entry): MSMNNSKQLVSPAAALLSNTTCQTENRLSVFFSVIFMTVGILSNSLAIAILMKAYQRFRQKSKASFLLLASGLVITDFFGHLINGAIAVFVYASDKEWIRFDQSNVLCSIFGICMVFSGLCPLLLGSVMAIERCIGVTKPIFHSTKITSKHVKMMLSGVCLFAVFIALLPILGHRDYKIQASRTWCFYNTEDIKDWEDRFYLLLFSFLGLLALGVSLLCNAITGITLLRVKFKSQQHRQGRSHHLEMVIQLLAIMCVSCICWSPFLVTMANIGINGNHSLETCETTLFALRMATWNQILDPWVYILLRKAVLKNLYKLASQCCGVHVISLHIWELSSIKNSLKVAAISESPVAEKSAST

5-HT2B = 5-HT2B (Homo sapiens, UniProt P41595); test: radioligand binding assay
Sequence of 5-HT2B (P41595 whole entry): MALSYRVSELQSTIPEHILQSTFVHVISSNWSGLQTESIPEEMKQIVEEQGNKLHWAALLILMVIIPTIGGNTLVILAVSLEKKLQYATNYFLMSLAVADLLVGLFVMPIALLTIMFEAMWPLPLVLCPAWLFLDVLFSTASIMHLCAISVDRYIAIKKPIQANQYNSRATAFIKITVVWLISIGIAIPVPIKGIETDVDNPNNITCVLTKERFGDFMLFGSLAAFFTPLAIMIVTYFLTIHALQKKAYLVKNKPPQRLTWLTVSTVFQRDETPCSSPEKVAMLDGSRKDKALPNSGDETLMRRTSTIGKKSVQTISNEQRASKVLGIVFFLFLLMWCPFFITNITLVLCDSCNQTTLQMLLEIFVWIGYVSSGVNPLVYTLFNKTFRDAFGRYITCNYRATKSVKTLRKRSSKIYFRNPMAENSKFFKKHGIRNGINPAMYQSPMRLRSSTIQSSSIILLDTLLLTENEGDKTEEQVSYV

sst4 = sst4 (Homo sapiens, UniProt P31391); type: binding
Sequence of sst4 (P31391 whole entry): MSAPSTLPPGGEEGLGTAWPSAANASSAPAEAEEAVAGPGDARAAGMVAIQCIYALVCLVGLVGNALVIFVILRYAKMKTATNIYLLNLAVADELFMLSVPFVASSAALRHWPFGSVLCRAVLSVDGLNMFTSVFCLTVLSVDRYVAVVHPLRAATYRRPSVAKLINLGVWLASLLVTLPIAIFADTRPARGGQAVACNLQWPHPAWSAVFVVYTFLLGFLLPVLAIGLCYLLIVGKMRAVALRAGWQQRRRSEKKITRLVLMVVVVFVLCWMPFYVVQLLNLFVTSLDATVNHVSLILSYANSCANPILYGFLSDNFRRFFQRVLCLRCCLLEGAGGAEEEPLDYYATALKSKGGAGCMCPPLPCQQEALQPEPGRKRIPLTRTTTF

Ca2+ channel = type: binding, human
MAO-A = MAO-A (Homo sapiens, UniProt P21397); type: biochemical
[1] = in vivo, sc
[2] = rat
brain OXTR = conditions: in vivo
mPFC transcriptome = conditions: rat, in vivo, 0.07 mg/kg
alpha 2A = alpha 2A (Homo sapiens, UniProt P08913)
beta 1 = beta 1 (Homo sapiens, UniProt P08588)
H2 = H2 (Homo sapiens, UniProt P25021)
H3 = H3 (Homo sapiens, UniProt Q9Y5N1)
Sequence of H3 (Q9Y5N1 whole entry): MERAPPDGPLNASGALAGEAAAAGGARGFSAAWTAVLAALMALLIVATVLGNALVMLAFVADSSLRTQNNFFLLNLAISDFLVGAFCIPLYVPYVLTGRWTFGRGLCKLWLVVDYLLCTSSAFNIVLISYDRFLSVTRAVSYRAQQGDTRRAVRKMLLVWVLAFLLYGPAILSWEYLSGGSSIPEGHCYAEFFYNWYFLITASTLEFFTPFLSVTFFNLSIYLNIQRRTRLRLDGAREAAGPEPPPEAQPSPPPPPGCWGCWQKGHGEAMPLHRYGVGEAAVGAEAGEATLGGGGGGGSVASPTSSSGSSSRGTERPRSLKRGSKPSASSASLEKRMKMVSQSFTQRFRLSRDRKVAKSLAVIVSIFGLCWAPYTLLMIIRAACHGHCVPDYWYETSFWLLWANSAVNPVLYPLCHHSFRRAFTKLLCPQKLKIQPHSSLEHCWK

kappa = kappa (Homo sapiens, UniProt P41145)
Sequence of kappa (P41145 whole entry): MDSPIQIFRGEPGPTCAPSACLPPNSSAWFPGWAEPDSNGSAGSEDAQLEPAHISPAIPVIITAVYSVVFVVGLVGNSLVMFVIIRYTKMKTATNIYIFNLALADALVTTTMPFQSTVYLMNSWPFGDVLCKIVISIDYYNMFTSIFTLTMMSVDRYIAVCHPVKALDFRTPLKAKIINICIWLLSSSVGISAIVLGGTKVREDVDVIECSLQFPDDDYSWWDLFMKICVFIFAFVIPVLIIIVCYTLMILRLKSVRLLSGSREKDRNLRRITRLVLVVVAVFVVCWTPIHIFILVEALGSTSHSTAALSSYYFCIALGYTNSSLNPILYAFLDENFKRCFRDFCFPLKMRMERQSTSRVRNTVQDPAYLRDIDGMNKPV

mu = mu (Homo sapiens, UniProt P35372)
Sequence of mu (P35372 whole entry): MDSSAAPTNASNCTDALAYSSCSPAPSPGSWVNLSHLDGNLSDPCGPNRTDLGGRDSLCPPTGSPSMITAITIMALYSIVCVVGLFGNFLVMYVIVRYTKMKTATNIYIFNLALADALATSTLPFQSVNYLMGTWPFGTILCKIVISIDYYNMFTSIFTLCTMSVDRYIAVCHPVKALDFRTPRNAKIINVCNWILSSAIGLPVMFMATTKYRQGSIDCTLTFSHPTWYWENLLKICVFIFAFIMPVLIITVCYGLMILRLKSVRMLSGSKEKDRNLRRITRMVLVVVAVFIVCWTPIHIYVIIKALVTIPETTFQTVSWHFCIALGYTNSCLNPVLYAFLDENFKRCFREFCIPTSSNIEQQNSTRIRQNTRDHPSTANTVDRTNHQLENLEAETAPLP

PPARgamma = PPARgamma (Homo sapiens, UniProt P37231)
GR = GR (Homo sapiens, UniProt P04150)
NE transporter = NE transporter (Homo sapiens, UniProt P23975)
Sequence of NE transporter (P23975 whole entry): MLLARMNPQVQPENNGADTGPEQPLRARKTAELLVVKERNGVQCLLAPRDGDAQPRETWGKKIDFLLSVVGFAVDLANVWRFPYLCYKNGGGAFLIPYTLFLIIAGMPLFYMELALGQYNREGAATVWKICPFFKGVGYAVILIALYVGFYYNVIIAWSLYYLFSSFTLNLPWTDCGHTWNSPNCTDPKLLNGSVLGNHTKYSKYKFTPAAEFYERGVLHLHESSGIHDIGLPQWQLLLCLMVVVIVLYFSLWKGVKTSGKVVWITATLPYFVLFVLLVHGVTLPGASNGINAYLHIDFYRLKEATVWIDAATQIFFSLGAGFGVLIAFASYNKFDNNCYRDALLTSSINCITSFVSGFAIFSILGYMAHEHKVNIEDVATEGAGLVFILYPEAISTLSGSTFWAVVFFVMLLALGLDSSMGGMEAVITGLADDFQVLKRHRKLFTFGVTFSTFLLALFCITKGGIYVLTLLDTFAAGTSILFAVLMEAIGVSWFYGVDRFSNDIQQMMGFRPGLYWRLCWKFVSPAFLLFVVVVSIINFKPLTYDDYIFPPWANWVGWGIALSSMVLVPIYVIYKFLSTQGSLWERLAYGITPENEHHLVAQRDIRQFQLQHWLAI

5-HT transporter = 5-HT transporter (Homo sapiens, UniProt P31645)
Sequence of 5-HT transporter (P31645 whole entry): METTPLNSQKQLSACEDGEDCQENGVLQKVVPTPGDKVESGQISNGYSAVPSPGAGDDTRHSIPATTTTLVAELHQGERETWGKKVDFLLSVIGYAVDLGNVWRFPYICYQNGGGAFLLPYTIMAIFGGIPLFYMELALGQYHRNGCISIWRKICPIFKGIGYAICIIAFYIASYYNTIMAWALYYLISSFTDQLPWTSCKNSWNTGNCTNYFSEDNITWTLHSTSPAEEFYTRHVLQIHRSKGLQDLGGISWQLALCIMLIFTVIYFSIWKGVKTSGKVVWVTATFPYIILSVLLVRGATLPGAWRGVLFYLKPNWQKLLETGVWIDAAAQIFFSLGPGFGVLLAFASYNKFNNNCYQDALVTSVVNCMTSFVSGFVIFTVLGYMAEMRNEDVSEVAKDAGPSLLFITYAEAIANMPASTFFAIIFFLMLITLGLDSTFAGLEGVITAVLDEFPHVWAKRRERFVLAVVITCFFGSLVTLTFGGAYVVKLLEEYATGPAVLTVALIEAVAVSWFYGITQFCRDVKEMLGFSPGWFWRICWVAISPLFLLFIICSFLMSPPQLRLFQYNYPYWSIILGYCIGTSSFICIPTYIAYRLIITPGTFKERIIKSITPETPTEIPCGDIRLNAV

COX2 = COX2 (Homo sapiens, UniProt P35354)
ACE = ACE (Homo sapiens, UniProt P12821)
HIV-1 protease = HIV-1 protease (Human immunodeficiency virus type 1 group M subtype B, UniProt P04585)
GSK3beta = GSK3beta (Homo sapiens, UniProt P49841)
Sequence of GSK3beta (P49841 whole entry): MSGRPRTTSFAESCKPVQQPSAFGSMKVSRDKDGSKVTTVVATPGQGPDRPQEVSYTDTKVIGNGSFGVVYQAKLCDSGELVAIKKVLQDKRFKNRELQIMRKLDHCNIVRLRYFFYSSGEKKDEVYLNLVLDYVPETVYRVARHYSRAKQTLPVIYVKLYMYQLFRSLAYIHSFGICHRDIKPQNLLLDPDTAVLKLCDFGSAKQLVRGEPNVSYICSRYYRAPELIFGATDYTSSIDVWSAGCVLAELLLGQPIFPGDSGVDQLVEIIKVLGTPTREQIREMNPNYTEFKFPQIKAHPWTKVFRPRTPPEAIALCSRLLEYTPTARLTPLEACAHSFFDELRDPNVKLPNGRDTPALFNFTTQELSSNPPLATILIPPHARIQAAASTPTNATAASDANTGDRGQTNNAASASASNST

MAO-B enzyme = MAO-B enzyme (Homo sapiens, UniProt P27338)
rat OXTR = rat OXTR (Rattus norvegicus, UniProt P70536); test: cell-based
human OXTR = human OXTR (Homo sapiens, UniProt P30559); test: cell-based
human V1aR = human V1aR (Homo sapiens, UniProt P37288); test: cell-based

Sequence of AT1 (P30556 whole entry): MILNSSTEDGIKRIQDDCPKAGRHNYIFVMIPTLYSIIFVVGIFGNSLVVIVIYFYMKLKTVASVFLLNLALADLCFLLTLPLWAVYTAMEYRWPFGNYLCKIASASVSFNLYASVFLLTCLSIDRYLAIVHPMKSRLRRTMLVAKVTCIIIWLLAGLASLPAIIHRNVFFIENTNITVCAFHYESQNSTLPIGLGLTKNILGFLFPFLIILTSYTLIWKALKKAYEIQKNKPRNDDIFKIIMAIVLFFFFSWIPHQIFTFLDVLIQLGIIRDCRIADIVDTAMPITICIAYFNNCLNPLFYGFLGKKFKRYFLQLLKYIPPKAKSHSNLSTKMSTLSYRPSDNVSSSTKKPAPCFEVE
Sequence of rat V1aR (P30560 whole entry): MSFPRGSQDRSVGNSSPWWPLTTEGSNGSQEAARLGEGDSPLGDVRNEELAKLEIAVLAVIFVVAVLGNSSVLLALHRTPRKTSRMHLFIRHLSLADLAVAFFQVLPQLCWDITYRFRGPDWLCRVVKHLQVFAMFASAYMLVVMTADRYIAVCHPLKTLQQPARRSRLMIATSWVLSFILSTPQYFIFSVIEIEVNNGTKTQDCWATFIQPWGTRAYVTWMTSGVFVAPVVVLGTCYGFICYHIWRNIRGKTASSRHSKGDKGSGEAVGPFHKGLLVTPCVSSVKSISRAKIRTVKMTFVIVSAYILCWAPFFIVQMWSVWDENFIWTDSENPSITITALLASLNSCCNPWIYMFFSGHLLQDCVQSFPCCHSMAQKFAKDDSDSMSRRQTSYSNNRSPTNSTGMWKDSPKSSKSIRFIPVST

CC[C@H](C)[C@@H]1NC(=O)[C@H](Cc2ccc(O)cc2)NC(=O)CNC(=O)CC[C@@H](C(=O)N2CC(F)C[C@H]2C(=O)N[C@@H](CC(C)C)C(=O)NCC(N)=O)NC(=O)[C@H](CC(N)=O)NC(=O)[C@H](CCC(N)=O)NC1=O (stereo partly shown) [RO6958375] (HELM PEPTIDE1{G.Y.I.Q.N.E.[O=C([C@@H]1CC(F)CN1[*:1])[*:2]].L.G.[am]}$PEPTIDE1,PEPTIDE1,1:R1-6:R3$$$V2.0)
EC50 (rat V1aR): > 27000 nM
activity on rat V1aR (inactive up to) (rat V1aR): > 1 µM
% Inhibition of Control Specific Binding (A1): -4%
Mean / % of Control Specific Binding (A1): 104.1%
% Inhibition of Control Specific Binding (alpha 1A): 1%
Mean / % of Control Specific Binding (alpha 1A): 98.8%
% Inhibition of Control Specific Binding (AT1): -1%
Mean / % of Control Specific Binding (AT1): 101.4%
% Inhibition of Control Specific Binding (BZD): -16%
Mean / % of Control Specific Binding (BZD): 116%
% Inhibition of Control Specific Binding (D2S): 6%
Mean / % of Control Specific Binding (D2S): 93.7%
% Inhibition of Control Specific Binding (M4): -17%
Mean / % of Control Specific Binding (M4): 116.9%
% Inhibition of Control Specific Binding (N muscle-type): 5%
Mean / % of Control Specific Binding (N muscle-type): 94.7%
% Inhibition of Control Specific Binding (PCP): -6%
Mean / % of Control Specific Binding (PCP): 105.5%
% Inhibition of Control Specific Binding (FP): 3%
Mean / % of Control Specific Binding (FP): 96.9%
% Inhibition of Control Specific Binding (5-HT2B): -2%
Mean / % of Control Specific Binding (5-HT2B): 102%
% Inhibition of Control Specific Binding (sst4): 17%
Mean / % of Control Specific Binding (sst4): 82.8%
% Inhibition of Control Specific Binding (Ca2+ channel): -36%
Mean / % of Control Specific Binding (Ca2+ channel): 136%
% Inhibition of Control Specific Binding (MAO-A): -15%
Mean / % of Control Specific Binding (MAO-A): 115%
highest concentration detected in rat CSF ([1]; 0.03 mg/kg): 0.24 nM
highest concentration detected in rat CSF ([1]; 0.1 mg/kg): 0.58 nM
CNS uptake from plasma ([1]; rat): ca. 1%
brain half-life (CSF kinetic) ([1]; rat): ca. 70 min
half-life in plasma ([1]; rat): 10 to 15 min
subcutaneous absorption ([1]; rat): rapid
plasma protein binding [2]: negligible
time of full activation of rat OXTR post-dose (brain OXTR; sc): 4.3 h
CSF concentration relative to in vitro OXTR EC50 (brain OXTR; rat): more than 10 fold
brain OXTR activation (brain OXTR; rat): 0%
brain OXTR activation (brain OXTR; rat, sc, 0.001 mg/kg): 10%
brain OXTR activation (brain OXTR; rat, sc, 0.07 mg/kg): 72%
CPA-induced transcriptomic changes (mPFC transcriptome): partially prevented
% Inhibition of Control Specific Binding (alpha 2A): -7%
Mean / % of Control Specific Binding (alpha 2A): 106.7%
% Inhibition of Control Specific Binding (beta 1): -5%
Mean / % of Control Specific Binding (beta 1): 105.2%
% Inhibition of Control Specific Binding (H2): 18%
Mean / % of Control Specific Binding (H2): 81.9%
% Inhibition of Control Specific Binding (H3): -6%
Mean / % of Control Specific Binding (H3): 105.9%
% Inhibition of Control Specific Binding (kappa): -13%
Mean / % of Control Specific Binding (kappa): 112.7%
% Inhibition of Control Specific Binding (mu): 2%
Mean / % of Control Specific Binding (mu): 98.2%
% Inhibition of Control Specific Binding (PPARgamma): -3%
Mean / % of Control Specific Binding (PPARgamma): 103.1%
% Inhibition of Control Specific Binding (sigma): 4%
Mean / % of Control Specific Binding (sigma): 96.2%
% Inhibition of Control Specific Binding (GR): -9%
Mean / % of Control Specific Binding (GR): 109.1%
% Inhibition of Control Specific Binding (NE transporter): 3%
Mean / % of Control Specific Binding (NE transporter): 97.2%
% Inhibition of Control Specific Binding (5-HT transporter): -4%
Mean / % of Control Specific Binding (5-HT transporter): 103.5%
% Inhibition of Control Specific Binding (COX2): 15%
Mean / % of Control Specific Binding (COX2): 85.3%
% Inhibition of Control Specific Binding (ACE): -28%
Mean / % of Control Specific Binding (ACE): 128.2%
% Inhibition of Control Specific Binding (HIV-1 protease): 5%
Mean / % of Control Specific Binding (HIV-1 protease): 95.3%
% Inhibition of Control Specific Binding (GSK3beta): -2%
Mean / % of Control Specific Binding (GSK3beta): 102.1%
% Inhibition of Control Specific Binding (MAO-B enzyme): -14%
Mean / % of Control Specific Binding (MAO-B enzyme): 113.8%
EC50 (rat OXTR): 0.011 nM
EC50 (human OXTR): 0.025 nM
EC50 (human V1aR): > 27000 nM
